Data: the supplement of paper PMC10883282
± gives the standard deviation of the averaged measurements.

Key:
Assay in all cases: relative viability vs DMSO control (72 h) (fraction); higher = more viable cells
HS729 = test system: HS729
Method in brief: (§1)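 Densities for seeding sarcoma cell lines into 384-well plates were set to give 80–90% confluence. After 24 h, 2.5 µl of serially diluted compound from source plates of 10 mM to 0.0002 mM went in, and plates stayed 72 h at 37 °C in 5% CO2 with 0.1% DMSO vehicle and a 5 µM positive control. Percent growth from ATPLite readings, averaged over up to triplicate wells, served as relative viability, rescaled so 1 means full and 0 means none.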

SK-ES-1 = test system: SK-ES-1
Method in brief: as §1

A204 = test system: A204
Method in brief: as §1

SYO-1 = test system: SYO-1
Method in brief: as §1

RD = test system: RD
Method in brief: as §1

KHOS-NP = test system: KHOS-NP
Method in brief: as §1

SW684 = test system: SW684
Method in brief: as §1

G401 = test system: G401
Method in brief: as §1

VA-ES-BJ = test system: VA-ES-BJ
Method in brief: as §1

SW872 = test system: SW872
Method in brief: as §1

MES-SA = test system: MES-SA
Method in brief: as §1

SK-LMS-1 = test system: SK-LMS-1
Method in brief: as §1

## CCN1C(=O)N(c2c(F)c(OC)cc(OC)c2F)Cc2cnc3[nH]c(CN4CCOCC4)cc3c21 [Pemigatinib]
HS729; 0.00017 µM
  relative viability: 1 ± 0.038
HS729; 0.00051 µM
  relative viability: 0.95 ± 0.069
HS729; 0.00152 µM
  relative viability: 0.912 ± 0.048
HS729; 0.00457 µM
  relative viability: 0.92 ± 0.055
HS729; 0.01372 µM
  relative viability: 0.843 ± 0.016
HS729; 0.04115 µM
  relative viability: 0.751 ± 0.024
HS729; 0.1235 µM
  relative viability: 0.644 ± 0.02
HS729; 0.3704 µM
  relative viability: 0.622 ± 0.015
HS729; 1.111 µM
  relative viability: 0.544 ± 0.032
HS729; 3.333 µM
  relative viability: 0.484 ± 0.0059
HS729; 10 µM
  relative viability: 0.444 ± 0.0099
SK-ES-1; 0.00017 µM
  relative viability: 0.969 ± 0.028
SK-ES-1; 0.00051 µM
  relative viability: 0.963 ± 0.041
SK-ES-1; 0.00152 µM
  relative viability: 0.989 ± 0.04
SK-ES-1; 0.00457 µM
  relative viability: 0.965 ± 0.034
SK-ES-1; 0.01372 µM
  relative viability: 0.935 ± 0.021
SK-ES-1; 0.04115 µM
  relative viability: 0.972 ± 0.043
SK-ES-1; 0.1235 µM
  relative viability: 0.89 ± 0.054
SK-ES-1; 0.3704 µM
  relative viability: 0.816 ± 0.034
SK-ES-1; 1.111 µM
  relative viability: 0.599 ± 0.021
SK-ES-1; 3.333 µM
  relative viability: 0.354 ± 0.012
SK-ES-1; 10 µM
  relative viability: 0.2767 ± 0.0018
A204; 0.00017 µM
  relative viability: 1.04 ± 0.057
A204; 0.00051 µM
  relative viability: 1.02 ± 0.04
A204; 0.00152 µM
  relative viability: 0.98 ± 0.046
A204; 0.00457 µM
  relative viability: 0.991 ± 0.052
A204; 0.01372 µM
  relative viability: 0.843 ± 0.081
A204; 0.04115 µM
  relative viability: 0.709 ± 0.029
A204; 0.1235 µM
  relative viability: 0.599 ± 0.032
A204; 0.3704 µM
  relative viability: 0.565 ± 0.038
A204; 1.111 µM
  relative viability: 0.516 ± 0.025
A204; 3.333 µM
  relative viability: 0.379 ± 0.012
A204; 10 µM
  relative viability: 0.333 ± 0.0092
SYO-1; 0.00017 µM
  relative viability: 0.97 ± 0.0037
SYO-1; 0.00051 µM
  relative viability: 0.962 ± 0.03
SYO-1; 0.00152 µM
  relative viability: 0.89 ± 0.055
SYO-1; 0.00457 µM
  relative viability: 0.86 ± 0.055
SYO-1; 0.01372 µM
  relative viability: 0.774 ± 0.1
SYO-1; 0.04115 µM
  relative viability: 0.763 ± 0.067
SYO-1; 0.1235 µM
  relative viability: 0.733 ± 0.071
SYO-1; 0.3704 µM
  relative viability: 0.725 ± 0.056
SYO-1; 1.111 µM
  relative viability: 0.687 ± 0.056
SYO-1; 3.333 µM
  relative viability: 0.652 ± 0.018
SYO-1; 10 µM
  relative viability: 0.635 ± 0.028
RD; 0.00017 µM
  relative viability: 1.02 ± 0.028
RD; 0.00051 µM
  relative viability: 1.07 ± 0.051
RD; 0.00152 µM
  relative viability: 1.06 ± 0.051
RD; 0.00457 µM
  relative viability: 1.06 ± 0.052
RD; 0.01372 µM
  relative viability: 1.04 ± 0.053
RD; 0.04115 µM
  relative viability: 1.04 ± 0.052
RD; 0.1235 µM
  relative viability: 1.03 ± 0.033
RD; 0.3704 µM
  relative viability: 1.04 ± 0.041
RD; 1.111 µM
  relative viability: 0.946 ± 0.022
RD; 3.333 µM
  relative viability: 0.7043 ± 0.0051
RD; 10 µM
  relative viability: 0.665 ± 0.013
KHOS-NP; 0.00017 µM
  relative viability: 1.09 ± 0.016
KHOS-NP; 0.00051 µM
  relative viability: 1.06 ± 0.027
KHOS-NP; 0.00152 µM
  relative viability: 1.088 ± 0.0061
KHOS-NP; 0.00457 µM
  relative viability: 1.088 ± 0.0087
KHOS-NP; 0.01372 µM
  relative viability: 1.055 ± 0.0086
KHOS-NP; 0.04115 µM
  relative viability: 1.065 ± 0.0077
KHOS-NP; 0.1235 µM
  relative viability: 1.07 ± 0.012
KHOS-NP; 0.3704 µM
  relative viability: 1.05 ± 0.02
KHOS-NP; 1.111 µM
  relative viability: 1.06 ± 0.021
KHOS-NP; 3.333 µM
  relative viability: 1.08 ± 0.012
KHOS-NP; 10 µM
  relative viability: 1.05 ± 0.029
SW684; 0.00017 µM
  relative viability: 1.1 ± 0.053
SW684; 0.00051 µM
  relative viability: 1.12 ± 0.056
SW684; 0.00152 µM
  relative viability: 1.13 ± 0.017
SW684; 0.00457 µM
  relative viability: 1.07 ± 0.04
SW684; 0.01372 µM
  relative viability: 1.12 ± 0.024
SW684; 0.04115 µM
  relative viability: 1.07 ± 0.064
SW684; 0.1235 µM
  relative viability: 1.05 ± 0.1
SW684; 0.3704 µM
  relative viability: 1.13 ± 0.048
SW684; 1.111 µM
  relative viability: 1.1 ± 0.04
SW684; 3.333 µM
  relative viability: 0.971 ± 0.017
SW684; 10 µM
  relative viability: 0.802 ± 0.028
G401; 0.00017 µM
  relative viability: 0.978 ± 0.036
G401; 0.00051 µM
  relative viability: 0.982 ± 0.011
G401; 0.00152 µM
  relative viability: 0.93 ± 0.028
G401; 0.00457 µM
  relative viability: 0.8789 ± 0.0083
G401; 0.01372 µM
  relative viability: 0.746 ± 0.034
G401; 0.04115 µM
  relative viability: 0.7 ± 0.02
G401; 0.1235 µM
  relative viability: 0.614 ± 0.015
G401; 0.3704 µM
  relative viability: 0.585 ± 0.042
G401; 1.111 µM
  relative viability: 0.518 ± 0.0062
G401; 3.333 µM
  relative viability: 0.379 ± 0.0057
G401; 10 µM
  relative viability: 0.349 ± 0.0097
VA-ES-BJ; 0.00017 µM
  relative viability: 1.02 ± 0.011
VA-ES-BJ; 0.00051 µM
  relative viability: 1.03 ± 0.021
VA-ES-BJ; 0.00152 µM
  relative viability: 1.023 ± 0.008
VA-ES-BJ; 0.00457 µM
  relative viability: 1.011 ± 0.0039
VA-ES-BJ; 0.01372 µM
  relative viability: 1.04 ± 0.037
VA-ES-BJ; 0.04115 µM
  relative viability: 1.05 ± 0.022
VA-ES-BJ; 0.1235 µM
  relative viability: 1.036 ± 0.0072
VA-ES-BJ; 0.3704 µM
  relative viability: 1.04 ± 0.02
VA-ES-BJ; 1.111 µM
  relative viability: 0.956 ± 0.023
VA-ES-BJ; 3.333 µM
  relative viability: 0.775 ± 0.029
VA-ES-BJ; 10 µM
  relative viability: 0.702 ± 0.016
SW872; 0.00017 µM
  relative viability: 1.02 ± 0.037
SW872; 0.00051 µM
  relative viability: 1.01 ± 0.033
SW872; 0.00152 µM
  relative viability: 1 ± 0.072
SW872; 0.00457 µM
  relative viability: 1.02 ± 0.031
SW872; 0.01372 µM
  relative viability: 0.999 ± 0.025
SW872; 0.04115 µM
  relative viability: 0.999 ± 0.073
SW872; 0.1235 µM
  relative viability: 0.964 ± 0.065
SW872; 0.3704 µM
  relative viability: 0.975 ± 0.053
SW872; 1.111 µM
  relative viability: 0.911 ± 0.026
SW872; 3.333 µM
  relative viability: 0.739 ± 0.013
SW872; 10 µM
  relative viability: 0.713 ± 0.021
MES-SA; 0.00017 µM
  relative viability: 0.912 ± 0.032
MES-SA; 0.00051 µM
  relative viability: 0.9387 ± 0.0089
MES-SA; 0.00152 µM
  relative viability: 0.937 ± 0.017
MES-SA; 0.00457 µM
  relative viability: 0.914 ± 0.042
MES-SA; 0.01372 µM
  relative viability: 0.91 ± 0.022
MES-SA; 0.04115 µM
  relative viability: 0.826 ± 0.054
MES-SA; 0.1235 µM
  relative viability: 0.732 ± 0.037
MES-SA; 0.3704 µM
  relative viability: 0.7701 ± 0.0064
MES-SA; 1.111 µM
  relative viability: 0.641 ± 0.0089
MES-SA; 3.333 µM
  relative viability: 0.397 ± 0.0085
MES-SA; 10 µM
  relative viability: 0.376 ± 0.008
SK-LMS-1; 0.00017 µM
  relative viability: 1.05 ± 0.017
SK-LMS-1; 0.00051 µM
  relative viability: 1.09 ± 0.011
SK-LMS-1; 0.00152 µM
  relative viability: 1.105 ± 0.004
SK-LMS-1; 0.00457 µM
  relative viability: 1.08 ± 0.022
SK-LMS-1; 0.01372 µM
  relative viability: 1.09 ± 0.049
SK-LMS-1; 0.04115 µM
  relative viability: 1.07 ± 0.012
SK-LMS-1; 0.1235 µM
  relative viability: 1.07 ± 0.07
SK-LMS-1; 0.3704 µM
  relative viability: 1.07 ± 0.026
SK-LMS-1; 1.111 µM
  relative viability: 0.9589 ± 0.0065
SK-LMS-1; 3.333 µM
  relative viability: 0.667 ± 0.042
SK-LMS-1; 10 µM
  relative viability: 0.528 ± 0.021
